Results taken from US20130190407A1, “CALCIUM RECEPTOR-ACTIVE MOLECULES” (NPS Pharmaceuticals, Inc., priority 1991, published 2013).
Counter-ions that a name gives are not always drawn. Like-named read-outs stand apart in the source and are kept apart here.

Tests used:
Sprague-Dawley rats = test: Serum/plasma Ca2+, PTH and calcitonin in rats in vivo; set-up: species or system rat; conditions: i.p.
Procedure: Compounds shown to activate the bovine parathyroid cell calcium receptor in vitro were tested for hypocalcemic activity in vivo. Male Sprague-Dawley rats (200 g) were maintained on a low calcium diet for one week prior to receiving test substance or vehicle as control. Blood was collected from the tail vein three hours after the intra-peritoneal administration of NPS 467. […] Serum total calcium, albumin and phosphate were measured by techniques well known in the art.
Rats (male, Sprague-Dawley, 250-300 g) were fed standard rat chow and fasted overnight prior to the experiment. NPS R-467 was suspended in corn oil, and administered as a single oral dose through a gavage needle. Three hours later a sample of blood was taken from the tail vein and assessed for ionized Ca^2+ levels.

[1] = biological target: T1, parathyroid cell calcium receptor (Bos taurus, UniProt P35384); test: Mobilization of intracellular Ca2+ ([Ca2+]i, fura-2) in bovine parathyroid cells; assay type: cell-based; set-up: Parathyroid glands were obtained from freshly slaughtered calves (12-15 weeks old); endogenous in cells; host or cells: dissociated primary bovine (calf) parathyroid cells; conditions: for compounds with any effect on basal [Ca2+]i or increases evoked by extracellular Ca2+: tested at 1 μM; for influx of extracellular Ca2+ / potentiation of Ca2+ mobilization / transient increases in [Ca2+]i: verapamil, D-600, TMB-8 100 μM, NPS 384 300 μM
T1 sequence (P35384 20-1085): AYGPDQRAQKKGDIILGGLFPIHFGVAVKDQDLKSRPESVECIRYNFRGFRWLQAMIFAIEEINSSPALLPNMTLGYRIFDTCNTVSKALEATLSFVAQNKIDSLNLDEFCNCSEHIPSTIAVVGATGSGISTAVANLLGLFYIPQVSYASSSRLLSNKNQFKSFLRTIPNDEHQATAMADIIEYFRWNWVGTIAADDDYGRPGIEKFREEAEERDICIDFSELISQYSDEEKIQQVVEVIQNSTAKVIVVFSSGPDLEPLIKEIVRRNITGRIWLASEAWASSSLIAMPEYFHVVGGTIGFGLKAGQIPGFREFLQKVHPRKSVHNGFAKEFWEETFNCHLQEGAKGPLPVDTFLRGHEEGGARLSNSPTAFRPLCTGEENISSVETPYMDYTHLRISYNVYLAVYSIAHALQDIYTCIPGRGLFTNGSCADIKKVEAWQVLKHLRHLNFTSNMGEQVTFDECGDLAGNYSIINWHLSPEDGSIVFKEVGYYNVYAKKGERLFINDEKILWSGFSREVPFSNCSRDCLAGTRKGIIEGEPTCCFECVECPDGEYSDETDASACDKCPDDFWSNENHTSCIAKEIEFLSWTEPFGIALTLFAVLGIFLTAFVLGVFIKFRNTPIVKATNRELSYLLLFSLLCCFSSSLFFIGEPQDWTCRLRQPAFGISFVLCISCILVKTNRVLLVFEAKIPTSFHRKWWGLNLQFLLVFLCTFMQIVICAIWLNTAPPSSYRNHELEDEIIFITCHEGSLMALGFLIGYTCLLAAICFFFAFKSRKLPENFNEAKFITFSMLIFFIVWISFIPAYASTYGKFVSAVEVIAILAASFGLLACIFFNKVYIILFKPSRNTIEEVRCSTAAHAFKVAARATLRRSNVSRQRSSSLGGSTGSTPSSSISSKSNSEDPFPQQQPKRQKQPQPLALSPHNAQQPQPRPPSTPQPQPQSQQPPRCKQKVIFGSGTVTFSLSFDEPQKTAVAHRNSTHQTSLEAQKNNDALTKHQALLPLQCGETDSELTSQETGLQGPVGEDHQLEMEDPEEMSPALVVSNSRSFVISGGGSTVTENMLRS
Procedure: This section describes procedures used to obtain and treat parathyroid cells from calves and humans. […] Human parathyroid glands, were obtained from patients undergoing surgical removal of parathyroid tissue for primary or uremic hyperparathyroidism (uremic HPT), and were treated similarly to bovine tissue.
Glands were trimmed of excess fat and connective tissue and then minced with fine scissors into cubes approximately 2-3 mm on a side. Dissociated parathyroid cells were prepared by collagenase digestion and then purified by centrifugation in Percoll buffer. The resultant parathyroid cell preparation was essentially devoid of red blood cells, adipocytes, and capillary tissue as assessed by phase contrast microscopy and Sudan black B staining. Dissociated and purified parathyroid cells were present as small clusters containing 5 to 20 cells.
The cells were then pelleted, resuspended in the same buffer, but lacking the ester, and incubated a further 15 minutes at 37° C. The cells were subsequently washed twice with PCB containing 0.5 mM CaCl2 and 0.5% BSA and maintained at room temperature (about 20° C.) Immediately before use, the cells were diluted five-fold with prewarmed 0.5 mM CaCl2-PCB to obtain a final BSA concentration of 0.1%. The concentration of cells in the cuvette used for fluorescence recording was 1−2×10^6/ml.
The fluorescence of indicator-loaded cells was measured at 37° C. in a spectrofluorimeter (Biomedical Instrumentation Group, University of Pennsylvania, Philadelphia, Pa.) equipped with a thermostated cuvette holder and magnetic stirrer using excitation and emission wavelengths of 340 and 510 nm, respectively. […] Leakage of dye is dependent on temperature and most occurs within the first 2 minutes after warming the cells in the cuvette. Dye leakage increases only very slowly thereafter. To correct the calibration for dye leakage, cells were placed in the cuvette and stirred at 37° C. for 2-3 minutes. The cell suspension was then removed, the cells pelleted, and the supernatant returned to a clean cuvette. […] This estimate was subtracted from the apparent Fmin.

[2] = biological target: bovine parathyroid cell calcium receptor (bovine) (UniProt P35384); test: cell-based or functional assay
[3] = EC50 for mobilization of intracellular Ca2+, bovine parathyroid cells
[4] = Table 8 (arylalkylamine calcimimetics), parathyroid cell calcium receptor in vitro, read-out: EC50
[5] = 100 to 1000 μM, buffer containing 2 mM CaCl2

Molecule: COc1cccc(C(C)NCCCc2ccccc2)c1 (racemic) [NPS 467]
- time course of hypocalcemic effect (Sprague-Dawley rats): maximal within three hours
- serum or whole blood Ca2+ (Sprague-Dawley rats; three hours, low calcium diet): dose-dependent reduction in serum or whole blood Ca^2+
- circulating levels of PTH (Sprague-Dawley rats; preliminary studies): dose-dependent reduction in circulating levels of PTH

Molecule: CC1=C(C(=O)OC(C)C)[C@H](c2cccc3nonc23)C([N+](=O)[O-])=C(C)N1 [(+) 202-791]
- compounds with any effect on basal [Ca2+]i or increases evoked by extracellular Ca2+ [1]: None

Molecule: CC1=C(C(=O)OC(C)C)[C@@H](c2cccc3nonc23)C([N+](=O)[O-])=C(C)N1 [(−) 202-791]
- compounds with any effect on basal [Ca2+]i or increases evoked by extracellular Ca2+ [1]: None

Molecule: N=C(N)NCCC[C@H](N)C(=O)NCCCNCCCNCCCCCNC(=O)[C@H](CC(N)=O)NC(=O)Cc1ccc(O)cc1O [Argiotoxin-636, argiotoxin 636]
- effect on cytosolic Ca2+ responses to subsequent extracellular Ca2+ ([1]; 400 μM): did potentiate cytosolic Ca^2+ responses
- increases in [Ca2+]i ([1]; 400 μM): did not elicit increases in [Ca^2+]
- effect on [Ca2+]i ([1]; tested at 100 to 300 μM): no effect

Molecule: N=C(N)NCCC[C@H](N)C(=O)NCCCNCCCNCCCCCNC(=O)[C@H](CC(N)=O)NC(=O)Cc1c[nH]c2cccc(O)c12 [Argiotoxin-659, argiotoxin 659]
- effect on [Ca2+]i ([1]; tested at 100 to 300 μM): evoked transient increases in [Ca^2+]i

Molecule: COC(=O)C1=C(C)NC(C)=C([N+](=O)[O-])C1c1ccccc1C(F)(F)F (stereo not drawn) [BAY K 8644]
- compounds with any effect on basal [Ca2+]i or increases evoked by extracellular Ca2+ [1]: None

Molecule: NCCCCCN [Cadaverine, cadaverine]
- effect on mobilization of intracellular Ca2+ ([1]; tested at 2 mM): inactive

Molecule: CSc1cccc(C(C)NCCCc2ccccc2)c1 (stereo not drawn) [Compound 8J, N-(3-Phenylpropyl)-1-(3-thiomethylphenyl)ethylamine hydrochloride]
- EC50 [1, 3]: < 5 µM
- EC50 [1, 4]: 0.78 µM

Molecule: CC(C)c1ccc(CN[C@H](C)c2cccc3ccccc23)cc1 [Compound 11X, (R)—N-(4-Isopropylbenzyl)-1-(1-naphthyl)ethylamine hydrochloride]
- EC50 [1, 3]: < 5 µM

Molecule: C[C@@H](NCCCc1ccccc1Cl)c1cccc2ccccc12 [Compound 12Z, (R)—N-3-(2-Chlorophenyl)-1-propyl-1-(1-naphthyl)ethylamine hydrochloride]
- EC50 [1, 3]: < 5 µM

Molecule: COc1ccc([C@@H](C)N[C@H](C)c2cccc3ccccc23)cc1 [Compound 14U, (R,R)—N-(1-(4-Methoxyphenyl)ethyl)-1-(1-naphthyl)ethylamine hydrochloride]
- EC50 [1, 3]: < 5 µM
- EC50 [1, 4]: 0.13 µM

Molecule: COc1ccc(CN[C@H](C)c2cccc3ccccc23)cc1Cl [Compound 17M, (R)—N-(3-Chloro-4-methoxybenzyl)-1-(1-naphthyl)ethylamine hydrochloride]
- EC50 [1, 3]: < 5 µM
- EC50 [1, 4]: 0.15 µM

Molecule: COc1ccc([C@@H](C)N[C@H](C)c2cccc3ccccc23)cc1C [Compound 17P, (R,R)—N-(1-(4-Methoxy-3-methylphenyl)ethyl)-1-(1-naphthyl)ethylamine hydrochloride]
- EC50 [1, 3]: < 5 µM
- EC50 [1, 4]: 0.04 µM

Molecule: COc1ccc(CCCN[C@H](C)c2cccc(OC)c2)cc1 [Compound 20I]
- EC50 [1, 4]: < 1 µM

Molecule: COc1ccc(CCN(C)CCCC(C#N)(c2cc(OC)c(OC)c(OC)c2)C(C)C)cc1OC [Compound D-600]
- influx of extracellular Ca2+ [1]: blocked the influx of extracellular Ca^2+
- potentiation of Ca2+ mobilization / transient increases in [Ca2+]i [1]: potentiated the mobilization of intracellular Ca^2+

Molecule: C1CNCCNCCNCCNCCNCCN1 [Hexacyclen, 1,4,7,10,13,16-hexaaza-cyclooctadecane]
- potency relative to NPS 383 [1]: 7 fold
- potency relative to pentaethylenehexamine [1]: 25 fold

Molecule: CCC[C@@H]1C[C@@H](C(=O)N[C@@H]([C@H]2O[C@H](SC)[C@H](O)[C@@H](O)[C@H]2O)[C@@H](C)O)N(C)C1 [Lincomycin, lincomycin]
- effect on mobilization of intracellular Ca2+ ([1]; tested at 500 μM): without effect

Molecule: NCCCCCCCCCCCCNC(=O)Cc1ccc(O)cc1O [NPS 021]
- increase in [Ca2+]i evoked by extracellular Ca2+ ([1]; around 500 μM): abolished
- change in [Ca2+]i by itself ([1]; low [Ca2+] 0.5 mM): does not by itself cause any change in [Ca^2+]i

Molecule: COc1ccc(CC(=O)NCCCCCCCCCCCCN)cc1OC [NPS 384]
- increase in [Ca2+]i ([1]; 300 μM): did not evoke an increase in [Ca^2+]i
- effect on [Ca2+]i [1, 5]: prompt fall in [Ca^2+]i
- influx of extracellular Ca2+ [1]: blocked influx of extracellular Ca^2+
- potentiation of Ca2+ mobilization / transient increases in [Ca2+]i [1]: fails to do so

Molecule: NCCCCCCCCCCCCN [NPS 472, 1,12-diaminododecane]
- effect on [Ca2+]i [1, 5]: prompt fall in [Ca^2+]i

Molecule: NCCCCN [Putrescine]
- effect on mobilization of intracellular Ca2+ ([1]; tested at 2 mM): inactive

Molecule: CCN(CC)CCCCCCCCOC(=O)c1cc(OC)c(OC)c(OC)c1 [TMB-8]
- influx of extracellular Ca2+ [1]: blocked the influx of extracellular Ca^2+
- potentiation of Ca2+ mobilization / transient increases in [Ca2+]i [1]: potentiated the mobilization of intracellular Ca^2+
- potentiation of Ca2+ mobilization / transient increases in [Ca2+]i ([1]; listed as TNB-8): potentiated transient increases in [Ca^2+]i

Molecule: COc1ccc([C@@H]2Sc3ccccc3N(CCN(C)C)C(=O)[C@@H]2OC(C)=O)cc1 [diltiazem]
- activity like verapamil and D-600 ([1]; 100 μM): effective

Molecule: N[C@@H](CCC(=O)O)C(=O)O [glutamate]
- response to mGluR agonists ([1]; bovine parathyroid cells or Xenopus oocytes expressing calcium receptors): did not respond

Molecule: COc1cccc(C(C)NCCC(c2ccccc2)c2ccccc2)c1 (stereo not drawn) [meta-Methoxyfendiline]
- potency in mobilization of intracellular Ca2+ ([1]; racemic mixture): as potent as NPS 467

Molecule: Philanthotoxin-433
- effect on mobilization of intracellular Ca2+ ([1]; tested at 500 μM): without effect

Molecule: polyArg (100) (peptide)
- EC50 for the mobilization of intracellular Ca^2+ (fura-2, bovine parathyroid cells) [2]: 0.004 µM

Molecule: polyArgTyr (22) (peptide)
- EC50 for mobilizing intracellular Ca^2+ [2]: < 0.1 µM
- EC50 for the mobilization of intracellular Ca^2+ (fura-2, bovine parathyroid cells) [2]: 0.2 µM

Molecule: polyLys (3.8) (peptide)
- EC50 for the mobilization of intracellular Ca^2+ (fura-2, bovine parathyroid cells) [2]: 3 µM

Molecule: polyLys (14) (peptide)
- EC50 for the mobilization of intracellular Ca^2+ (fura-2, bovine parathyroid cells) [2]: 1 µM

Molecule: polyLys (27) (peptide)
- EC50 for the mobilization of intracellular Ca^2+ (fura-2, bovine parathyroid cells) [2]: 0.03 µM

Molecule: protamine (peptide)
- cyclic AMP (% of control), isoproterenol-stimulated, 2 ug/ml protamine, +PTx [2]: 89 % of control
- cyclic AMP (% of control), isoproterenol-stimulated, 2 ug/ml protamine, control [2]: 20 % of control
- potency in mobilizing intracellular Ca^2+ in parathyroid cells (EC50) [2]: 0.04 µM
